Source: patent publication US10004222B2, “Small molecule ice recrystallization inhibitors and methods of use thereof” (THE UNIVERSITY OF OTTAWA, priority 2012, dated 2018)
Where “and” joins values, the source holds several entries; their conditions need not be identical. Equal values may be shown once. Entries after “also recorded” stand apart in the source; their conditions may differ.

How the values were obtained:
[1] = system: CD34+ cells (hematopoietic stem cells); experiment: colony forming unit (CFU) assay after cryopreservation of umbilical cord blood; type: cell-based, human; conditions: for combined results of the CFU assays vs control: UCB units 26, 27, 28 combined, FIG. 41; for BFU-E / CFU-G / CFU-GEMM / CFU-GM / CFU-M / Total Number of Colonies: post-thaw, 14 days in Methocult
Description: (§1) Aliquots of LC (50,000 CD34^+ cells) are added to 2.0 mL cryovials. For each experiment, four cryovials are prepared (two for post-thaw viability analysis using flow cytometry and two for functionality analysis using the colony forming unit assay). Cryovials are kept on ice until placement in −80° C. freezer. Cryovials are centrifuged at 400 g and 10° C. for 5 minutes to pellet cells. After centrifugation, the time taken until placement in −80° C. freezer should not exceed 10 minutes. Supernatant is removed by aspiration or by decanting, but preferably by aspiration. Plasma (volume depends on desired cryosolution concentration) is added and cells are suspended by pipetting. Pre-made cryosolutions (see Cryosolutions) are added (volume depends on desired cryosolution concentration) and mixed by pipetting. Cryovials are placed in a Mr. Frosty® rate controlled freezing container which is then placed in a −80° C. freezer for 24 hours. By placing the cryovials in the freezing container, their contents undergo a cooling rate of about −1° C. per minute. After 24 hours, the cryovials are transferred to a liquid nitrogen dewar for storage until thawed for analysis.
(§2) Cryosolutions are prepared in distilled autoclaved water supplemented with 0.9% saline and 5% dextran for cryopreservation experiments and diluted with different volumes of plasma in cryovials depending on desired concentration of ice recrystallization inhibitor. N-(4-chlorophenyl)-D-gluconamide (4a) and N-(2-fluorophenyl)-D-gluconamide (2a) are prepared at 25 mM and N-(4-methoxyphenyl)-D-gluconamide (3a) and N-(2,6-difluorobenzyl)-D-gluconamide (1b) are prepared at 55 mM. 100, 50, 33 or 20 μL of 25 mM N-(4-chlorophenyl)-D-gluconamide (4a) or N-(2-fluorophenyl)-D-gluconamide (2a) are added to cryovials containing 50,000 CD34^+ cells suspended in 0, 50, 67, or 80 μL of plasma, respectively, for a final IRI concentration of 25, 12.5, 8 or 5 mM, respectively. 100, 50, 33 or 20 μL of 55 mM N-(4-methoxyphenyl)-D-gluconamide (3a) or N-(2,6-difluorobenzyl)-D-gluconamide (1b) are added to cryovials containing 50,000 CD34^+ cells suspended in 0, 50, 67, or 80 μL of plasma, respectively, for a final IRI concentration of […], 18 or 11 mM, respectively.
Cryovials are thawed in a 37° C. water bath and diluted with 900 μL of IMDM (10% FBS, 1% penicillin/streptomycin). Cryovials are placed on ice until washed. Samples are mixed by pipetting and 80 μL is transferred to a 15 mL Falcon tube. 5 mL of Iscove's Modified Dulbecco's Medium (IMDM) supplemented with 10% fetal bovine serum (FBS) is added and this mixture is centrifuged at 1100 rpm for six minutes to yield a cell pellet and a supernatant. The supernatant is removed by aspiration and the cell pellet is resuspended in 1 mL IMDM (2% FBS) to form a suspension. The suspension is mixed by pipetting. 150 μL of this cell suspension is added to 3 mL Methocult™ media and plating is performed in accordance with manufacturer's instruction. The suspension with Methocult™ media is mixed adequately by vortexing for 20 seconds. The contents are allowed to settle and bubbles are allowed to subside before plating (approximately 5-10 minutes). Using a 3 mL syringe and 16 gauge blunt needles, 2.5 mL of the cell suspension in Methocult™ is taken from the bottom. 1 mL of this 2.5 mL is added to two 5 mL cell culture dishes. The dishes are swirled to ensure cells in Methocult™ medium coat the entire bottom of the dish. A third 5 mL dish is prepared to contain distilled autoclaved water without a lid. These three 5 mL dishes are placed in a 100 mL plate; two 5 mL dishes contain 1 mL of cell suspension in Methocult™ medium with the lid on and one containing distilled autoclaved water with the lid off. The lid is placed on the 100 mL plate and stored in a 37° C. incubator (5% CO2) for two weeks.

[2] = splat cooling ice recrystallization inhibition (IRI) assay
Description: In this assay, the area of ice crystals are measured after a 30 minute annealing time at −6.4° C. and compared to a positive control for ice recrystallization resulting in a quantitative measurement of the mean ice grain size. For a positive control, a phosphate buffered saline (PBS) solution was utilized. All samples were normalized to the PBS positive control. The ice recrystallization inhibition activity of the carbohydrate-based non-ionic surfactants n-octyl-β-D-glucopyranoside (compound 3) and n-octyl-β-D-galactopyranoside (compound 4) is shown in FIG. 1.
In this assay, the area of ice crystals are measured after a 30 minute annealing time at −6.4° C. and compared to a positive control for ice recrystallization resulting in a quantitative measurement of the mean ice grain size. For a positive control, a PBS solution was utilized. All samples were normalized to the PBS positive control.
N-aryl-D-gluconamides (3a), (2a), (4a), and (1b) are a class of low molecular weight carbohydrate-based compounds. The ice recrystallization inhibition activity of (3a), (2a), (4a), and (1b) was assessed using a “splat cooling” assay. In this assay, the area of ice crystals are measured after a 30 minutes annealing time at −6.4° C. and compared to a positive control for ice recrystallization resulting in a quantitative measurement of the mean ice grain size. For a positive control, PBS was utilized. All samples were normalized to the PBS positive control.

Tf1-α cells = experiment: cryopreservation of Tf1-α cells, viability/apoptosis by flow cytometry (7-AAD, Annexin V); type: cell-based; conditions: for Apoptosis (%) / Cell Viability (%): 55 mM aryl-aldonamide, post-thaw; for cell viability: stored at −196° C. for 48 hours
Description: Tf1-α cells were cultured to a final concentration of 2-3×10^6 cells/mL. Three million cells were transferred into cryovials and media were removed by aspiration after centrifugation at 1000 rpm for five minutes. 100 μL of RPMI media (10% FBS) supplemented with the cryopreservative of interest was added to the cryovial and vortexed. The cryovials were cooled at a rate of −1° C./min for 24 hours to −80° C. before being transferred to a liquid nitrogen dewar for storage until analysis.
Cryovials were thawed under fast thaw conditions (submerged in 37° C. water bath). The cells were then diluted to a concentration of 3×10^6 cells/mL with 1× Annexin V Binding Buffer and a cell count was obtained by hemacytometer (to obtain cell recovery). A 400 μL aliquot was transferred to a flow cytommetry tube. 10 μL of each Annexin V FITC (for apoptosis) and 7-AAD (for viability) dyes were added, the tube was vortexed and allowed to incubate in the dark for 15 minutes. The solution was diluted to 1 mL with 1× Annexin V Binding Buffer, vortexed and analyzed by flow cytommetry. […] With 2% DMSO, cell viability reached about 45%, and with 10% DMSO, cell viability reached around 78%.

[3] = system: CD34+ cells (hematopoietic stem cells); experiment: post-thaw viability of CD34+ cells of cryopreserved umbilical cord blood, flow cytometry; type: cell-based, human
Description: Whole umbilical cord blood (UCB) should be stored at room temperature (15-25° C.) and processed within 48 hrs of collection. UCB is removed from collection bag and spilt in equal parts into 50 mL Falcon tubes. No more than 25 mL of UCB should be added per Falcon tube. UCB is diluted with 6% hetastarch (Hespan) to obtain a final concentration of 1% hetastarch and incubated for 10 minutes at room temperature. The tubes are then centrifuged at 50 g at 10° C. for 15-20 minutes, depending on volume. The centrifuge should not brake to stop. For total volumes of 30 mL, 15-17 minute centrifugation is utilized and for total volumes of 35 mL, 17-20 minute centrifugation is utilized. The supernatant and buffy coat (plasma and leukocytes) are removed carefully (not collecting RBCs) from the tubes and collected into new 50 mL Falcon tubes. These tubes are centrifuged at 400 g and 10° C. for 10 mins to pellet cells. The centrifuge brake can now be utilized. Plasma is removed and kept in new 50 mL Falcon tubes on ice. The cell pellets resuspended and combined in plasma to a total volume of 20 mL to generate leukocyte concentrate (LC). The LC is kept on ice for the duration of its use. Total mononuclear (CD45^+) and CD34^+ (hematopoetic stem cells) cell concentrations and viability are determined by flow cytometry (see Flow Cytometry procedure below). Aliquots of LC (50,000 CD34^+ cells) are utilized for cryopreservation experiments (see Cryopreservation Experiments procedure below).
as §1, §2
Total mononuclear cell (CD45+) and progenitor cell (CD34+) viability is assessed by flow cytometry using International Society of Hematotherapy and Graft Engineering (ISHAGE) guidelines (J. Hematother. Stem Cell Res. 1996, 5, 213-226). […]

[4] = 22 mM in PBS, 30 min annealing at −6.4° C.
[5] = 10% DMSO (⅕ dilution with plasma), UCB Unit 27
[6] = 10% DMSO (⅕ dilution with plasma), UCB Unit 28

O=C(Nc1ccc(F)cc1)[C@H](O)[C@@H](O)[C@H](O)[C@H](O)CO [(6a), N-(4-Fluorophenyl)-D-gluconamide]
combined results of the CFU assays vs control [1]: did not perform particularly well

COc1ccccc1NC(=O)[C@H](O)[C@@H](O)[C@H](O)[C@H](O)CO [(7a), N-(2-methoxyphenyl)-D-gluconamide]
combined results of the CFU assays vs control [1]: did not perform particularly well

O=C(NCc1cc(F)cc(F)c1)[C@H](O)[C@@H](O)[C@H](O)[C@H](O)CO [(2b), N-(3,5-difluorobenzyl)-D-gluconamide]
combined results of the CFU assays vs control [1]: did not perform particularly well

O=C(Nc1ccccc1Cl)[C@H](O)[C@@H](O)[C@H](O)[C@H](O)CO [(5a), N-(2-chlorophenyl)-D-gluconamide]
BFU-E ([1]; 5 mM IRI, 10% DMSO): 19.2 | CFU-G ([1]; 5 mM IRI, 10% DMSO): 5.0 | CFU-GEMM ([1]; 5 mM IRI, 10% DMSO): 2.3 | CFU-GM ([1]; 5 mM IRI, 10% DMSO): 5.2 | CFU-M ([1]; 5 mM IRI, 10% DMSO): 1.0 | Total Number of Colonies ([1]; 5 mM IRI, 10% DMSO): 32.7 | BFU-E ([1]; 8 mM IRI, 10% DMSO): 18.0 | CFU-G ([1]; 8 mM IRI, 10% DMSO): 5.0 | CFU-GEMM ([1]; 8 mM IRI, 10% DMSO): 2.0 | CFU-GM ([1]; 8 mM IRI, 10% DMSO): 4.0 | CFU-M ([1]; 8 mM IRI, 10% DMSO): 2.0 | Total Number of Colonies ([1]; 8 mM IRI, 10% DMSO): 31.0 | BFU-E ([1]; 12.5 mM IRI, 10% DMSO): 27.0 | CFU-G ([1]; 12.5 mM IRI, 10% DMSO): 8.0 | CFU-GEMM ([1]; 12.5 mM IRI, 10% DMSO): 4.5 | CFU-GM ([1]; 12.5 mM IRI, 10% DMSO): 6.5 | CFU-M ([1]; 12.5 mM IRI, 10% DMSO): 1.5 | Total Number of Colonies ([1]; 12.5 mM IRI, 10% DMSO): 47.5 | fold increase in functionality relative to the control ([1]; 12.5 mM vs DMSO only): 1.5 fold | BFU-E ([1]; 25 mM IRI, 10% DMSO): 20.5 | CFU-G ([1]; 25 mM IRI, 10% DMSO): 7.0 | CFU-GEMM ([1]; 25 mM IRI, 10% DMSO): 1.0 | CFU-GM ([1]; 25 mM IRI, 10% DMSO): 11.0 | CFU-M ([1]; 25 mM IRI, 10% DMSO): 2.5 | Total Number of Colonies ([1]; 25 mM IRI, 10% DMSO): 42.0 | combined results of the CFU assays vs control [1]: did not perform particularly well

OC[C@@H](O)[C@@H](O)[C@H](O)[C@@H](O)CO [D-sorbitol, reference compound]
ice recrystallization inhibition activity ([2]; concentration not given): decreased activity relative to the pyranose forms

CCCCCCCCO[C@@H]1OC(CO)[C@@H](O)[C@H](O)C1O (stereo partly drawn) [compound 3, n-octyl-β-D-glucopyranoside]
ice recrystallization inhibition activity [2, 4]: identical to that of D-glucose | ice recrystallization inhibition activity ([2]; 44 mM in PBS): still identical to that of the 22 mM D-glucose

O=C(Nc1ccccc1)[C@H](O)[C@@H](O)[C@H](O)[C@H](O)CO [(1a), phenyl-aldonamide]
Apoptosis (%) (Tf1-α cells; 0% DMSO): 0% | Cell Viability (%) (Tf1-α cells; 0% DMSO): 0.07% | Apoptosis (%) (Tf1-α cells; 2% DMSO): 0.9% | Cell Viability (%) (Tf1-α cells; 2% DMSO): 34.71% | Apoptosis (%) (Tf1-α cells; 10% DMSO): 4.22% | Cell Viability (%) (Tf1-α cells; 10% DMSO): 68.82%

OC[C@@H](O)[C@H](O)[C@H](O)[C@@H](O)CO [D-dulcitol, reference compound]
ice recrystallization inhibition activity ([2]; concentration not given): decreased activity relative to the pyranose forms

C[S+](C)[O-] [DMSO, Dimethyl sulfoxide, reference compound]
Post-Thaw Viab. ([3]; 10% DMSO (no plasma)): 83% | Post-Thaw Viab. [3, 5]: 88% | Post-Thaw Viab. [3, 6]: 87% | cell viability (Tf1-α cells; 2% DMSO alone): about 45% | cell viability (Tf1-α cells; 10% DMSO alone): around 78% | Tot. No. Colonies ([1]; 10% DMSO (no plasma)): 47 and 34 | Tot. No. Colonies [1, 5]: 56 and 35 | Tot. No. Colonies [1, 6]: 36 | BFU-E ([1]; 10% DMSO only, IRI None): 15.6 | CFU-G ([1]; 10% DMSO only, IRI None): 5.1 | CFU-GEMM ([1]; 10% DMSO only, IRI None): 2.8 | CFU-GM ([1]; 10% DMSO only, IRI None): 6.8 | CFU-M ([1]; 10% DMSO only, IRI None): 0.7 | Total Number of Colonies ([1]; 10% DMSO only, IRI None): 31 | Tot. No. Colonies, AVG ([1]; average of control solutions): 28

CCCCCCCCO[C@@H]1OC(CO)[C@H](O)[C@H](O)C1O (stereo partly drawn) [compound 4, n-octyl-β-D-galactopyranoside]
ice recrystallization inhibition activity ([2]; 11 mM in PBS): significantly better than 22 mM D-galactose | ice recrystallization inhibition activity [2, 4]: significantly better than 22 mM D-galactose; also recorded: potent | ice recrystallization inhibition activity ([2]; 44 mM in PBS): significantly better than 22 mM D-galactose
